Columns and labels:
UO-31 = test: NCI in vitro cell line screen (SRB), Renal Cancer UO-31; assay type: cell-based
Experimental: (§1) For exemplary purposes, an embodiment of the present invention was tested for activity with respect to certain cancer cell lines. The following Tables show results from in vitro 60-cell line antitumor testing from the US National Cancer Institute Developmental Therapeutics Program (NCI-DTP) on compound 2. The testing was in connection with the NCI's In Vitro Cell Line Screening Project (IVCLSP). Detailed information regarding the experiments and their interpretation is available from the NCI.

PC-3 = test: NCI in vitro cell line screen (SRB), Prostate Cancer PC-3; assay type: cell-based
Experimental: as §1

DU-145 = test: NCI in vitro cell line screen (SRB), Prostate Cancer DU-145; assay type: cell-based
Experimental: as §1

NCI/ADR-RES = test: NCI in vitro cell line screen (SRB), Breast Cancer NCI/ADR-RES; assay type: cell-based
Experimental: as §1
Antitumor agents with tumor-specific selectivity are highly desired, in order to reduce the incidence of non-selective cytotoxicity to patients. […] This is of special importance since this NCI/ADR-RES cell line is resistant to many currently used antitumor agents such as adriamycin, taxol, and others.

HS 578T = test: NCI in vitro cell line screen (SRB), Breast Cancer HS 578T; assay type: cell-based
Experimental: as §1

HIF-1 = test: pTK-HRE3-luc reporter assay, hypoxia-induced HIF-1 activation in T47D cells; details: Homo sapiens, T47D, read-out: IC50, inhibition of hypoxic activation of HIF-1
[1] = Homo sapiens, read-out: LC50 (the source's name)
[2] = NCI/ADR-RES, Log10 Concentration −4.0 Molar
[3] = NCI/ADR-RES, Log10 Concentration −5.0 Molar
[4] = NCI/ADR-RES, Log10 Concentration −6.0 Molar
[5] = NCI/ADR-RES, Log10 Concentration −7.0 Molar
[6] = NCI/ADR-RES, Log10 Concentration −8.0 Molar

COc1ccc([C@@H](O)[C@@H](C)Oc2ccc([C@H]3O[C@H](c4ccc(O[C@H](C)[C@H](O)c5ccc6c(c5)OCO6)c(OC)c4)[C@H](C)[C@H]3C)cc2OC)cc1OC [Compound 2, manassantin B]
GI50 (UO-31; Homo sapiens): 3.9 µM
CC50 (UO-31; [1]): > 100 µM
Mean Optical Densities (UO-31; Log10 Concentration −4.0 Molar): 0.786
Percent Growth (UO-31; Log10 Concentration −4.0 Molar): 33%
Mean Optical Densities (UO-31; Log10 Concentration −5.0 Molar): 0.841
Percent Growth (UO-31; Log10 Concentration −5.0 Molar): 39%
Mean Optical Densities (UO-31; Log10 Concentration −6.0 Molar): 1.102
Percent Growth (UO-31; Log10 Concentration −6.0 Molar): 66%
Mean Optical Densities (UO-31; Log10 Concentration −7.0 Molar): 1.189
Percent Growth (UO-31; Log10 Concentration −7.0 Molar): 75%
Mean Optical Densities (UO-31; Log10 Concentration −8.0 Molar): 1.250
Percent Growth (UO-31; Log10 Concentration −8.0 Molar): 81%
TGI (PC-3): 1.77E−5 Molar
GI50 (PC-3; Homo sapiens): 2.37 µM
CC50 (PC-3; [1]): > 100 µM
Mean Optical Densities (PC-3; Log10 Concentration −4.0 Molar): 0.152
Percent Growth (PC-3; Log10 Concentration −4.0 Molar): −30%
Mean Optical Densities (PC-3; Log10 Concentration −5.0 Molar): 0.268
Percent Growth (PC-3; Log10 Concentration −5.0 Molar): 10%
Mean Optical Densities (PC-3; Log10 Concentration −6.0 Molar): 0.588
Percent Growth (PC-3; Log10 Concentration −6.0 Molar): 74%
Mean Optical Densities (PC-3; Log10 Concentration −7.0 Molar): 0.668
Percent Growth (PC-3; Log10 Concentration −7.0 Molar): 90%
Mean Optical Densities (PC-3; Log10 Concentration −8.0 Molar): 0.665
Percent Growth (PC-3; Log10 Concentration −8.0 Molar): 89%
TGI (DU-145): >1.00E−4 Molar
GI50 (DU-145; Homo sapiens): 10.6 µM
CC50 (DU-145; [1]): > 100 µM
Mean Optical Densities (DU-145; Log10 Concentration −4.0 Molar): 0.487
Percent Growth (DU-145; Log10 Concentration −4.0 Molar): 28%
Mean Optical Densities (DU-145; Log10 Concentration −5.0 Molar): 0.623
Percent Growth (DU-145; Log10 Concentration −5.0 Molar): 51%
Mean Optical Densities (DU-145; Log10 Concentration −6.0 Molar): 0.800
Percent Growth (DU-145; Log10 Concentration −6.0 Molar): 81%
Mean Optical Densities (DU-145; Log10 Concentration −7.0 Molar): 0.831
Percent Growth (DU-145; Log10 Concentration −7.0 Molar): 86%
Mean Optical Densities (DU-145; Log10 Concentration −8.0 Molar): 0.817
Percent Growth (DU-145; Log10 Concentration −8.0 Molar): 83%
inhibition of the NCI/ADR-RES breast tumor cell line (NCI/ADR-RES): potently inhibits
GI50 (NCI/ADR-RES; Homo sapiens, NCI/ADR-RES): 0.107 µM
CC50 (NCI/ADR-RES; Homo sapiens, NCI/ADR-RES, read-out: LC50 (the source's name)): > 100 µM
TGI (NCI/ADR-RES; NCI/ADR-RES): >1.00E−4 Molar
Mean Optical Densities (NCI/ADR-RES; [2]): 0.982
Percent Growth (NCI/ADR-RES; [2]): 5%
Mean Optical Densities (NCI/ADR-RES; [3]): 1.133
Percent Growth (NCI/ADR-RES; [3]): 20%
Mean Optical Densities (NCI/ADR-RES; [4]): 1.389
Percent Growth (NCI/ADR-RES; [4]): 45%
Mean Optical Densities (NCI/ADR-RES; [5]): 1.445
Percent Growth (NCI/ADR-RES; [5]): 50%
Mean Optical Densities (NCI/ADR-RES; [6]): 1.518
Percent Growth (NCI/ADR-RES; [6]): 57%
TGI (HS 578T): >1.00E−4 Molar
GI50 (HS 578T; Homo sapiens): 10.4 µM
CC50 (HS 578T; [1]): > 100 µM
Mean Optical Densities (HS 578T; Log10 Concentration −4.0 Molar): 0.834
Percent Growth (HS 578T; Log10 Concentration −4.0 Molar): 17%
Mean Optical Densities (HS 578T; Log10 Concentration −5.0 Molar): 1.018
Percent Growth (HS 578T; Log10 Concentration −5.0 Molar): 51%
Mean Optical Densities (HS 578T; Log10 Concentration −6.0 Molar): 1.188
Percent Growth (HS 578T; Log10 Concentration −6.0 Molar): 82%
Mean Optical Densities (HS 578T; Log10 Concentration −7.0 Molar): 1.267
Percent Growth (HS 578T; Log10 Concentration −7.0 Molar): 96%
Mean Optical Densities (HS 578T; Log10 Concentration −8.0 Molar): 1.222
Percent Growth (HS 578T; Log10 Concentration −8.0 Molar): 88%
IC50 (HIF-1): 0.003 µM
